Experimental data from ChEMBL document CHEMBL1201862, “PubChem BioAssay data set” (2004).
Calls of active or inactive are those of the source.

Assays:
[1] = NIH-3T3 fibroblast cytotoxicity, dose response, cytotoxicity control, cell-based, fluorescence, Alamar Blue, secondary assay (AID 2327); type: functional;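 also: NIH-3T3 mouse fibroblasts cultured with fluconazole at 8 µg/mL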
[2] = target: T1, Serine/threonine-protein phosphatase (Candida dubliniensis (strain CD36 / CBS 7987 / NCPF 3949 / NRRLY-17841) (Yeast), UniProt B9W6M3); assay: blockers of CaCl2-induced CDRE-lacZ signaling – S. cerevisiae, luminescence, secondary, dose response (AID 2388); type: functional, cell-based;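 also: yeast reporter cells carrying a calcineurin-responsive lacZ construct stimulated with calcium chloride; luminescent beta-galactosidase reporter signal in whole cells rather than isolated phosphatase activity; potency for inhibition where a drop in reporter signal means calcineurin blockade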
T1 sequence (B9W6M3 whole entry): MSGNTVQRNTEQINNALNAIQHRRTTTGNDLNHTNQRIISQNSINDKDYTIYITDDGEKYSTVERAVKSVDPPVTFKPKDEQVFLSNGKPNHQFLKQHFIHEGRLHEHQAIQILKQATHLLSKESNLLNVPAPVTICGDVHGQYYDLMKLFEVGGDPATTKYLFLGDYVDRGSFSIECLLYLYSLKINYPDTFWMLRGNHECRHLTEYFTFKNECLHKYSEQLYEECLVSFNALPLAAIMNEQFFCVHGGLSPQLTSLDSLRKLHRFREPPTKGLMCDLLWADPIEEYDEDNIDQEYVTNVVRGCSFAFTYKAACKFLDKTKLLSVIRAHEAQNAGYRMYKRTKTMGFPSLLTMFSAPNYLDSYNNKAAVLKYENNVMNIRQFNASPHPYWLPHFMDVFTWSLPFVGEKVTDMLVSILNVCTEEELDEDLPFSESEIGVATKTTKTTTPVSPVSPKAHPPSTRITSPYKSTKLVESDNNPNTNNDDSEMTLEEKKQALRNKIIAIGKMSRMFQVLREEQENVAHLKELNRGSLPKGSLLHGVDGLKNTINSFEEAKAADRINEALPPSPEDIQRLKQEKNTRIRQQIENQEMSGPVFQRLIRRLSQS

[3] = tested on: INS1; assay: INS-1E survival protection against cytokine death – cell-based, luminescence, retest, dose response (AID 449756); type: functional; conditions: Rattus norvegicus;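 also: cell death triggered by IL-1 beta plus TNF-alpha plus IFN-gamma mixture; protective hits raise ATP signal compared with cytokine alone wells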
[4] = target: T2, Protein skinhead-1 (Caenorhabditis elegans, UniProt P34707); type: functional
T2 sequence (P34707 whole entry): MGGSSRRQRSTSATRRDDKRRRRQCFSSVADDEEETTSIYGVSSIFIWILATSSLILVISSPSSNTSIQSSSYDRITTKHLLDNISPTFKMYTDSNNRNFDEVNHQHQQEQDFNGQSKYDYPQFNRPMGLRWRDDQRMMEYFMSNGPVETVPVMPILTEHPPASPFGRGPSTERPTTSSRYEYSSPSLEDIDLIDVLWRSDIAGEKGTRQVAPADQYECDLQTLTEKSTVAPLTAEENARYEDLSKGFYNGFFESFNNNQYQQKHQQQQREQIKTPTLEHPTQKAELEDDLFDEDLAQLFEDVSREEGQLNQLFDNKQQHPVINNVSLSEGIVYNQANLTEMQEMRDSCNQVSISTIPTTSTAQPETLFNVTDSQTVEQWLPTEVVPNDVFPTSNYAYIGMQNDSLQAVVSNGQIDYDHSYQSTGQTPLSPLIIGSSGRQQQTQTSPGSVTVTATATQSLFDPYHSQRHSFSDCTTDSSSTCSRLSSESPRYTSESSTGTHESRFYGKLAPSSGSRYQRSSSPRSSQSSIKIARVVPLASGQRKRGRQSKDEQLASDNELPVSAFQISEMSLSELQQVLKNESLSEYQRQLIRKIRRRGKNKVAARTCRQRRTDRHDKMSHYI

[5] = fluconazole-exposed Candida albicans growth modulators – fluorescence, retest, confirmation (AID 2467); type: functional, cell-based
[6] = target: ATP-dependent molecular chaperone HSP82 (Candida albicans (strain WO-1) (Yeast), UniProt C4YTQ8); assay: steroid-induced GRE reporter decrease in yeast – S. cerevisiae, luminescence, Hsp90 inhibitor project, dose response (AID 2400); type: functional, cell-based;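 also: beta-galactosidase luminescence from glucocorticoid response element reporter as proxy for Hsp90 function; inhibitor potency where signal loss means Hsp90 inhibition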
Chain of ATP-dependent molecular chaperone HSP82 (C4YTQ8 whole entry): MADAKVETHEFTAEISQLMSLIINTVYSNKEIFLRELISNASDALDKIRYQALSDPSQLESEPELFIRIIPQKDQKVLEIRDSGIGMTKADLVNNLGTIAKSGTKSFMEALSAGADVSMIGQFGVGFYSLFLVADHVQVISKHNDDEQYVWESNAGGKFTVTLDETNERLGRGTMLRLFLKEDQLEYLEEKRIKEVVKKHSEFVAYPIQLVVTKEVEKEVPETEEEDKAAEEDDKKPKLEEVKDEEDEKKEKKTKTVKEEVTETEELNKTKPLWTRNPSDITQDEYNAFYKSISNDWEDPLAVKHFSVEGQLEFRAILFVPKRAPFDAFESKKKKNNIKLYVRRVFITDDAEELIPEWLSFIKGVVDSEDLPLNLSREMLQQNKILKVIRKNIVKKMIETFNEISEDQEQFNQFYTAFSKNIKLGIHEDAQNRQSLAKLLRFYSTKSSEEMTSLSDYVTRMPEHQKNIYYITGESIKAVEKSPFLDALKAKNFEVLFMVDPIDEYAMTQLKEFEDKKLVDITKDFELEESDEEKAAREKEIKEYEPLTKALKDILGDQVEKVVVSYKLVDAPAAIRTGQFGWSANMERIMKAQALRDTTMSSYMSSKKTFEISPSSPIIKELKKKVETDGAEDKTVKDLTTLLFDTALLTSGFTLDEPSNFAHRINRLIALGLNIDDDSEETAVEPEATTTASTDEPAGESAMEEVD

[7] = target: T3, Orexin receptor type 2 (Homo sapiens, UniProt O43614); assay: Counterscreen assay for antagonists of the orexin 1 receptor (OX1R; HCRTR1): Fluorescence-based cell-based dose response assay for antagonists of the orexin 2 receptor (OX2R; HCRTR2), run by assay provider.; type: functional
T3 sequence (O43614 whole entry): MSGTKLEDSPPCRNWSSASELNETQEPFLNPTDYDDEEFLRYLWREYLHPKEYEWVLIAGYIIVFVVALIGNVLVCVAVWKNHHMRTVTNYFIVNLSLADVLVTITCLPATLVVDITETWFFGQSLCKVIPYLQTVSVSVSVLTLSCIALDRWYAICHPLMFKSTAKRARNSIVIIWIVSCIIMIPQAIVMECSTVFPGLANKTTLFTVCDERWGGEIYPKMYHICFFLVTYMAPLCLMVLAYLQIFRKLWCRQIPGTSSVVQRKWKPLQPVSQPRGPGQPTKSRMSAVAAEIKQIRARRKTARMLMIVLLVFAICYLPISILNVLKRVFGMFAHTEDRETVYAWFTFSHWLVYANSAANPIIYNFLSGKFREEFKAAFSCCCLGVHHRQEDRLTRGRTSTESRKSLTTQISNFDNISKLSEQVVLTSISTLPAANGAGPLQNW

[8] = target: T3, Orexin receptor type 2; assay: Counterscreen assay for antagonists of the orexin 1 receptor (OX1R; HCRTR1): Homogeneous Time Resolved Fluorescence (HTRF)-based cell-based dose response assay for antagonists of the orexin 2 receptor (OX2R; HCRTR2), run by assay provider.; type: functional
[9] = target: T4, High affinity choline transporter 1 (Homo sapiens, UniProt Q9GZV3); assay: human choline transporter blockers, potency – cell-based, 10-point CRC, membrane potential dye, dose response (AID 588401); type: functional;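 also: membrane potential dye fluorescence of choline-evoked depolarization via CHT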
T4 sequence (Q9GZV3 whole entry): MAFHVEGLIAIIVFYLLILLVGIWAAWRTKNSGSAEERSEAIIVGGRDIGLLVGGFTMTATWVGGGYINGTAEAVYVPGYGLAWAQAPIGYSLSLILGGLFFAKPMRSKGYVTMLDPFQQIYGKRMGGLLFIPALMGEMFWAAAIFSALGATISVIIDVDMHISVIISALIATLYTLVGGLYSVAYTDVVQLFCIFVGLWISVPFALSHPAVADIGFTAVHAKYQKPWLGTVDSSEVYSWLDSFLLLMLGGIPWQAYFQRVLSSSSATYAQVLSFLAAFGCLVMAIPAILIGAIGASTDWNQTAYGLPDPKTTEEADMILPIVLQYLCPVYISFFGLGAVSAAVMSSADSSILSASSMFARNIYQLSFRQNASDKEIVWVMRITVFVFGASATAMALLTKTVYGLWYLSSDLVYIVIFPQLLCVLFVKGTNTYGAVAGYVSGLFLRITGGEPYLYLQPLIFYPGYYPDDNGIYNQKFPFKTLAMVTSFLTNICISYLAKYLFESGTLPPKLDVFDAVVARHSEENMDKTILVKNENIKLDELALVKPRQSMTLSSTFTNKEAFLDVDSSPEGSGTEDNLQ

[10] = target: T4, High affinity choline transporter 1; assay: human choline transporter blockers, potency – cell-based, 5-point CRC, membrane potential dye, dose response (AID 504840); type: functional
[11] = tested on: Vero; assay: viability of Vero cells under compound – cytotoxicity control for flavivirus capping enzyme inhibitors (AID 588742); type: functional; conditions: Chlorocebus sabaeus
[12] = target: Beta-galactosidase (Escherichia coli, UniProt Q8VNN2); assay: PubChem AID 485352; type: functional
Chain of Beta-galactosidase (Q8VNN2 whole entry): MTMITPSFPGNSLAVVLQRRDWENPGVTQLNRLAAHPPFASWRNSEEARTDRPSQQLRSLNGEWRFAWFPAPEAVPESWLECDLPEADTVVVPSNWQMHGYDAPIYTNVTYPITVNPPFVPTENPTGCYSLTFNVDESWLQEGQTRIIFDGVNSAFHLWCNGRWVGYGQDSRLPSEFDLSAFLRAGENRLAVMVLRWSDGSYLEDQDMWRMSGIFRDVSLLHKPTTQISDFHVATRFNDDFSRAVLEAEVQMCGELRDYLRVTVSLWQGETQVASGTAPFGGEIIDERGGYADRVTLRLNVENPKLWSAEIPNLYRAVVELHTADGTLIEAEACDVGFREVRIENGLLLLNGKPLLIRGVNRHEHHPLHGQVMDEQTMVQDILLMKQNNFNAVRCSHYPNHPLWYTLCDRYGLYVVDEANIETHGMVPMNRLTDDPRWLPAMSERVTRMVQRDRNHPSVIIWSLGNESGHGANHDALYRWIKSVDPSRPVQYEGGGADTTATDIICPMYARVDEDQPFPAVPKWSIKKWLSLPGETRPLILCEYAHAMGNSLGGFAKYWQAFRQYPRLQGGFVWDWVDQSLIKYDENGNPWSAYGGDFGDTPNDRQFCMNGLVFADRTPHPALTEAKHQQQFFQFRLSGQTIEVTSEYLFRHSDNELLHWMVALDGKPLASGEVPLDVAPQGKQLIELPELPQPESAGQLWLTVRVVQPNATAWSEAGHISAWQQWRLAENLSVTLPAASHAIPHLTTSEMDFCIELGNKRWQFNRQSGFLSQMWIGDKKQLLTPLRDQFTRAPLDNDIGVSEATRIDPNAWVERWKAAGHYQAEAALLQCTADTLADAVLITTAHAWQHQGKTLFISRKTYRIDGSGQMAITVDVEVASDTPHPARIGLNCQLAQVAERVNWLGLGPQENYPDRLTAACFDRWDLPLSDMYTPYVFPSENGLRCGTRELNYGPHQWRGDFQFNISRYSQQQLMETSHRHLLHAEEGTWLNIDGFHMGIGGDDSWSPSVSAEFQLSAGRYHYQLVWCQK

[13] = target: T5, Type-1 angiotensin II receptor (Homo sapiens, UniProt P30556); assay: antagonism of angiotensin II type 1 receptor – cell-based, uHTS hits, selectivity assay for APJ receptor antagonist project, dose response (AID 463214); type: functional;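 also: antagonist potency against angiotensin II stimulated AT1 response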
T5 sequence (P30556 whole entry): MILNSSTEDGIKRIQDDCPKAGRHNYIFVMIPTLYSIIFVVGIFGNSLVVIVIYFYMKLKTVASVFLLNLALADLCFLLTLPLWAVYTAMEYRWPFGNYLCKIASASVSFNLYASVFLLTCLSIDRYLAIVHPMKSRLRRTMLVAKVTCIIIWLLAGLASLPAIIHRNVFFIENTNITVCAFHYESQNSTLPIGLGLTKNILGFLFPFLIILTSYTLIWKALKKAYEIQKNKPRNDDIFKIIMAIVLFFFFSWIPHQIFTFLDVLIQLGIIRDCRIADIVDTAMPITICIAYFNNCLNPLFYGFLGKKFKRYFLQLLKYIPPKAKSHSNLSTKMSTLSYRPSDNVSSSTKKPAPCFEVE

[14] = microbe, parasite or virus in culture; type: functional; conditions: Mycobacterium tuberculosis
[15] = tested on: A-375; assay: proliferation inhibition in MITF-low A375 cells – cell-based, cherry-pick samples, set 2, counter-screen for MITF modulator project, dose response (AID 540335); type: functional; conditions: Homo sapiens
[16] = tested on: A-375; assay: MITF: Counter assay: A375 proliferation Measured in Cell-Based System Using Plate Reader - 2084-03_Inhibitor_Dose_DryPowder_Activity. [Related pubchem assays (depositor defined):AID488944]; type: functional; conditions: Homo sapiens
[17] = target: T6, Short transient receptor potential channel 4 (Mus musculus, UniProt Q9QUQ5); assay: calcium entry via TRPC4 opening agents – cell-based, HEK293 TRPC4/mu-opioid, Fluo-4 calcium, dose response (AID 434937); type: functional
T6 sequence (Q9QUQ5 whole entry): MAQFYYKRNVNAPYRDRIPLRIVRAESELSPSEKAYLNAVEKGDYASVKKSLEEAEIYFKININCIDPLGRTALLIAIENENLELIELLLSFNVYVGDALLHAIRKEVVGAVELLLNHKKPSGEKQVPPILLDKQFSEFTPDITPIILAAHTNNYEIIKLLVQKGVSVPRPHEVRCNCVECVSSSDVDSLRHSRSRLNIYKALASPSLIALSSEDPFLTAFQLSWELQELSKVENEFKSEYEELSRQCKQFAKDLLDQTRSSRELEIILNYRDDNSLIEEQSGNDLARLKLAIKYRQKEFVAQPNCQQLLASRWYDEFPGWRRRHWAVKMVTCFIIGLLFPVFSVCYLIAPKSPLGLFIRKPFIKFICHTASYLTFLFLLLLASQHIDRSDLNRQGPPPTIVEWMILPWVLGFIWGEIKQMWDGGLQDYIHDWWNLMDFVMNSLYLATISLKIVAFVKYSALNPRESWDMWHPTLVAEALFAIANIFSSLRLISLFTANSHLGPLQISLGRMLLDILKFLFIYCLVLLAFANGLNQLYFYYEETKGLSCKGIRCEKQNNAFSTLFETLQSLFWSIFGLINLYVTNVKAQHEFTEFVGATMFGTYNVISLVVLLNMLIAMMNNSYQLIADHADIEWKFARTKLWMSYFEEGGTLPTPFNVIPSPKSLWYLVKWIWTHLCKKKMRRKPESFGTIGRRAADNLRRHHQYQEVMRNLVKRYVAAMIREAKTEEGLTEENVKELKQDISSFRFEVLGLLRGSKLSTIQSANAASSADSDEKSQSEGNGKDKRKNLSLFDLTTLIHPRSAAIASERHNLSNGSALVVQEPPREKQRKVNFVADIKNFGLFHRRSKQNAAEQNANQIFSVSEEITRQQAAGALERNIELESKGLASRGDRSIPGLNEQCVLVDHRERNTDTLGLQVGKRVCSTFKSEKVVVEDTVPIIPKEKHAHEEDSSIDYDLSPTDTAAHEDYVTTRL

[18] = target: T7, Microphthalmia-associated transcription factor (Homo sapiens, UniProt O75030); assay: reducers of TRPM1 reporter luminescence, concentration series – cell-based, SK-MEL-5, cherry-picked, set 3, MITF inhibitor project, dose response (AID 493073); type: functional;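 also: SK-MEL-5 melanoma cells with luciferase driven by the MITF target TRPM1 promoter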
T7 sequence (O75030 whole entry): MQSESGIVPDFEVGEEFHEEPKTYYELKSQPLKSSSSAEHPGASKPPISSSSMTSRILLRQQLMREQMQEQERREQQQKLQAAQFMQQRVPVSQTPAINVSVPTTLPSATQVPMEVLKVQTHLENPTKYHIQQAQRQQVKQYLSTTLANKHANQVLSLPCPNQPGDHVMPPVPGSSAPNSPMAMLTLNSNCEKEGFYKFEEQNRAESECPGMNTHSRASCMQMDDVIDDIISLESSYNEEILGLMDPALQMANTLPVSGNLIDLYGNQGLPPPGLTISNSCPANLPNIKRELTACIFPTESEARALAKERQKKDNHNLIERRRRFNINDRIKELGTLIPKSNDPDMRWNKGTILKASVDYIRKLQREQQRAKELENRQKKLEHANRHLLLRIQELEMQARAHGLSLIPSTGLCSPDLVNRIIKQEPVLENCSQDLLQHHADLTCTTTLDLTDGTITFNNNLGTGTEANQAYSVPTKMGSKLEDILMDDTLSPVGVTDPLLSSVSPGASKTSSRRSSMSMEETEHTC

Structure (SMILES): COc1cccc(COc2cc3ccccc3nc2C)c1
- EC50 [1]: > 150 µM (inconclusive)
- EC50 [2]: > 180 µM (inactive)
- AC50 [3]: 2.61 µM (active)
- IC50 [4]: 80.1 µM (inactive)
- EC50 [5]: 0.914 µM (active)
- EC50 [6]: > 160 µM (inactive)

Structure (SMILES): CCOc1ccccc1C(=O)NCCCCNC(=O)c1ccccc1OCC
- IC50 [7]: > 88.8 µM (inactive)
- IC50 [8]: > 50 µM (inactive)

Structure (SMILES): O=C(NC1CCCCCCC1)c1ccc(CNc2c(N3CCOCC3)c(=O)c2=O)cc1
- IC50 [9]: 2.01 µM (active)
- IC50 [10]: 0.875 µM (active)

Structure (SMILES): COc1ccc(CC2=C(O)C(=O)c3ccccc3C2=O)cc1
- CC50 [11]: > 40 µM (active)

Structure (SMILES): O=C(COC(=O)c1ccncc1)c1ccc(Cl)c(Cl)c1
- EC50 [12]: > 40 µM (inactive)
- IC50 [13]: 15 µM (active)

Structure (SMILES): COc1ccc(CN2CCN(C(C)C)C(CCO)C2)cc1Cn1cccn1 (stereo not given)
- IC50 [9]: 1.41 µM (active)
- IC50 [10]: 3.31 µM (active)

Structure (SMILES): Cc1sc2nc3c4ccccc4c(NCc4ccco4)nn3c(=O)c2c1C
- CC50 [11]: > 40 µM (active)
- CC50 [14]: 37.6 µM (active)

Structure (SMILES): Cc1ccc(C(=O)COC(=O)CNS(=O)(=O)c2ccccc2)cc1[N+](=O)[O-]
- EC50 [12]: > 40 µM (inactive)
- IC50 [13]: 33 µM (not active)

Structure (SMILES): CN(C)CCCN(C(=O)c1ccc(Cl)s1)c1nc2cc3c(cc2s1)OCO3
- AC50 [15]: > 11 µM (active)
- AC50 [16]: > 11 µM (active)
- EC50 [17]: 5.96 µM (active)
- AC50 [18]: 22.9 µM (active)

Structure (SMILES): COc1ccc(NS(=O)(=O)c2ccc(NC(=O)c3ccccc3Br)cc2)nn1
- IC50 [9]: 5.01 µM (active)
- IC50 [10]: 10.3 µM (active)
